Experimental data taken from PMC9605497, “Potential of Epidermal Growth Factor-like Peptide from the Sea Cucumber Stichopus horrens to Increase the Growth of Human Cells: In Silico Molecular Docking Approach” (Marine Drugs, 2022).

System: EGF/PDGF pathway genes
Assay: qPCR array of EGF/PDGF pathway genes
Format: cell-based, human
Set-up: key to expression class: +: Maximum expression; −: Minimum expression; unc.: Unchanged
Details: 10 nM, 4 h; for fold change: vs serum-free medium
Protocol: Cells were seeded at 80,000 cells per well of 24-well plates in 400 µL of complete growth medium. Cells were grown in MEM basal medium supplemented with 10% FBS and 1% antibiotic–antimycotic in a humidified incubator at 37 °C, equilibrated with 5% CO2. After 24 h of culture, the medium was removed, washed once with PBS, replaced with serum-free medium and left to culture for another 16 h. Medium was removed and replaced with corresponding treatment medium each in triplicates; 10 nM and 50 nM of Sh-EGFl-1, 10 nM and 50 nM of rhEGF were used as a positive control and serum-free medium was used as a negative control. Cells were harvested after 4 h. Medium was removed and 200 μL of Trizol reagent (Thermo Scientific, Waltham, MA, USA) was immediately added.
RNA extraction was performed according to Trizol reagent manufacturer’s protocol. An elution volume of 15 μL RNase-free water was added before the concentration and purity were determined using NanoDrop.
A total of 100 ng RNA was used initially for the cDNA synthesis reaction. The reaction was carried out according to RT^2 First Strand Kit’s protocol (Qiagen, Venlo, Netherlands). Genomic DNA was removed according to the manufacturer’s protocol prior to cDNA strand generation.
The 10 μL cDNA of human skin cells was diluted with 91 μL prior to qPCR reaction. Primer pairs of 84 genes involved in the EGF pathway, five housekeeping genes such as ribosomal protein large, P0 (RPL0), glyceraldehyde-3-phosphate-dehydrogenase (GAPDH), beta-actin (ACTB), beta-2-microglobulin (B2M) and hypoxanthine phosphoribosyltransferase 1 (HPRT1), one positive control gene for genomic DNA contamination, three reverse transcription control genes and three PCR-positive controls were included in the Qiagen PAHS-040ZA qPCR array plate (Qiagen, Venlo, Netherlands). A list of all genes analyzed in this study is available in Supplementary Materials Table S7. The mixture reaction was prepared according to the protocol and run using BioRad CFX96TM. Samples of 10 nM rhEGF and 10 nM Sh-EGFl-1 were prepared in duplicates. The following thermal profile was applied: 1 cycle at 95 °C for 10 min, 40 cycles at 95 °C for 15 s, 60 °C for 1 min, with the ramp rate from 95 °C to 60 °C was set at 1 °C every second. The data were then analyzed through Qiagen web portal. Data for serum-free medium were selected as a control group and the differences in gene expression between control and treatment groups were calculated using the 2^(−delta delta CT) method. The difference, known as fold change, was obtained from the delta delta CT values, which are the genes of interest and the average housekeeping genes, followed by the delta delta CT (delta CT (treatment group)—delta CT (control group)).

[1] = IKBKB (IKK), PLC gamma signaling
[2] = PLCG1 (PLC), PLC gamma signaling
[3] = PPP2CA (TSC2), PLC gamma signaling
[4] = RASA1 (p120GAP), MAPK signaling
[5] = RPS6KA5 (p70S6K), MAPK signaling
[6] = RPS6KA5 (p70S6K), PI3K signaling
[7] = RPS6KA5 (p70S6K), PLC gamma signaling
[8] = RPS6KB1 (p70S6K), MAPK signaling
[9] = RPS6KB1 (p70S6K), PI3K signaling
[10] = RPS6KB1 (p70S6K), PLC gamma signaling

## H-MNSDSECPLSHDGYCLHDGVCMYIEALDKYACNCVVGYIGERCQYRDLKWWELR-OH (disulfide) [rhEGF, Recombinant human EGF purchased from Thermo Scientific, reference compound]
qPCR array heat map
  gene expression profile, EGF/PDGF pathway: opposite gene expression profile
AKT1, PI3K signaling
  expression class: −
  fold change: (0.69)
AKT3, PI3K signaling
  expression class: −
  fold change: (0.87)
ATF1, MAPK signaling
  expression class: −
  fold change: (0.87)
ATF2, MAPK signaling
  expression class: −
  fold change: (0.67)
CASP3, MAPK signaling
  expression class: −
  fold change: (0.70)
CASP9, MAPK signaling
  expression class: −
  fold change: (0.63)
CBL, MAPK signaling
  expression class: −
  fold change: (0.96)
CCND1, PI3K signaling
  expression class: −
  fold change: (0.83)
DUSP1, MAPK signaling
  expression class: −
  fold change: (0.50)
DUSP6, MAPK signaling
  expression class: −
  fold change: (0.74)
E1F4E, PI3K signaling
  expression class: +
  fold change: (1.24)
ELK1, JAK-STAT signaling
  expression class: −
  fold change: (0.77)
FOS, JAK-STAT signaling
  expression class: −
  fold change: (1.02)
GAB1, PI3K signaling
  expression class: +
  fold change: (0.88)
GRB2, PI3K signaling
  expression class: −
  fold change: (0.76)
GSK3A, PI3K signaling
  expression class: −
  fold change: (0.75)
GSK3B, PI3K signaling
  expression class: −
  fold change: (0.84)
HRAS, MAPK signaling
  expression class: −
  fold change: (0.62)
IKBKB (IKK), PI3K signaling
  expression class: −
  fold change: (0.73)
[1]
  expression class: −
  fold change: (0.73)
IKBKB, MAPK signaling
  expression class: −
  fold change: (0.73)
JAK1, JAK-STAT signaling
  expression class: −
  fold change: (0.77)
JUN, JAK-STAT signaling
  expression class: unc.
  fold change: (0.98)
MAP2K1 (MEK1), MAPK signaling
  expression class: −
  fold change: (0.74)
MAP2K4 (MKK4), MAPK signaling
  expression class: −
  fold change: (0.51)
MAP2K7 (MKK7), MAPK signaling
  expression class: +
  fold change: (0.95)
MAP3K2 (MEKK2), MAPK signaling
  expression class: −
  fold change: (0.82)
MAPK1 (ERK2), MAPK signaling
  expression class: −
  fold change: (0.76)
MAPK3 (ERK1), MAPK signaling
  expression class: −
  fold change: (0.79)
MAPK8, MAPK signaling
  expression class: −
  fold change: (0.73)
MAPK9, MAPK signaling
  expression class: −
  fold change: (0.54)
MAPK10, MAPK signaling
  expression class: +
  fold change: (1.24)
MKNK1, MAPK signaling
  expression class: −
  fold change: (0.54)
NFATC3, MAPK signaling
  expression class: −
  fold change: (0.96)
NFKB, PI3K signaling
  expression class: −
  fold change: (0.90)
NFKB, PLC gamma signaling
  expression class: −
  fold change: (0.90)
P13KCA, PI3K signaling
  expression class: −
  fold change: (1.08)
PDPK1 (PDK1), PI3K signaling
  expression class: −
  fold change: (0.86)
PIK3R1, PI3K signaling
  expression class: −
  fold change: (0.80)
PIK3R2, PI3K signaling
  expression class: −
  fold change: (0.75)
[2]
  expression class: −
  fold change: (0.89)
[3]
  expression class: −
  fold change: (0.69)
PRKCA, PLC gamma signaling
  expression class: −
  fold change: (0.78)
RAP1A, MAPK signaling
  expression class: −
  fold change: (0.80)
[4]
  expression class: −
  fold change: (0.83)
RHOA, Rho signaling
  expression class: −
  fold change: (0.84)
[5]
  expression class: unc.
  fold change: (0.75)
[6]
  expression class: unc.
  fold change: (0.75)
[7]
  expression class: unc.
  fold change: (0.75)
[8]
  expression class: −
  fold change: (0.68)
[9]
  expression class: −
  fold change: (0.68)
[10]
  expression class: −
  fold change: (0.68)
SHC1, MAPK signaling
  expression class: −
  fold change: (0.80)
SHC1, PI3K signaling
  expression class: −
SRC, JAK-STAT signaling
  expression class: +
  fold change: (1.16)
STAT3, JAK-STAT signaling
  expression class: −
  fold change: (0.89)
STAT5, JAK-STAT signaling
  expression class: −
  fold change: (0.89)
TP53, MAPK signaling
  expression class: unc.
  fold change: (0.82)
TP53, PI3K signaling
  expression class: unc.
  fold change: (0.82)
